We go through 14 compounds from article PMC11549994, “A dTDP-L-rhamnose 4-epimerase required for glycopeptidolipid biosynthesis in Mycobacterium abscessus” (The Journal of Biological Chemistry, 2024).

For experiment [1], the system named is T1, M. abscessus CIP104536T (S).
T1 construct: CIP104536T smooth (S) morphotype
Description: microbe, parasite or virus in culture. Also on record: species or system Mycobacteroides abscessus CIP104536T; antibiotic susceptibility testing, MIC of drugs against M. abscessus strains. The following applies: Mycobacteroides abscessus, read-out: MIC (µg/mL) (phenotypea) / S. The protocol: (§1) M. abscessus CIP104536^T (S) and CIP104536^T (R) strains used in this study were previously sequenced and their genomic differences identified and characterized ([13], [60]). Mycobacteria were grown in Middlebrook 7H9 broth (BD) supplemented with 0.025% tyloxapol and 10% oleic acid-albumin-dextrose-catalase (OADC) enrichment (7H9^OADC) or on Middlebrook 7H10 agar (BD) containing 10% OADC (7H10^OADC) at 37 °C, with antibiotics when required. A Bio-Rad Gene pulser (25 μF, 2500 V, 800 Ω) was used to transform electrocompetent mycobacteria. After transformation, strains carrying the pMV306 ([48]) derivatives were selected on 250 μg/ml kanamycin.

Experiment [2] deals with T2, M. abscessus CIP104536T (R).
T2 construct: CIP104536T rough (R) morphotype
Nature of the experiment: microbe, parasite or virus in culture. As to conditions: Mycobacteroides abscessus, read-out: MIC (µg/mL) (phenotypea) / R. Also on record: species or system Mycobacteroides abscessus CIP104536T; antibiotic susceptibility testing, MIC of drugs against M. abscessus strains. The method, then: as §1

Experiment [3] relates to T1, M. abscessus CIP104536T (S). Description: microbe, parasite or virus in culture. Also on record: species or system Mycobacteroides abscessus CIP104536T; antibiotic susceptibility testing, MIC of drugs against M. abscessus strains. As to conditions: Mycobacteroides abscessus, read-out: MIC (µg/mL) (phenotypea) / S. The protocol: as §1
The source holds these as a separate data set.

Experiment [4] concerns T2, M. abscessus CIP104536T (R). Nature of the experiment: microbe, parasite or virus in culture. Also noted: species or system Mycobacteroides abscessus CIP104536T; antibiotic susceptibility testing, MIC of drugs against M. abscessus strains. As to conditions: Mycobacteroides abscessus, read-out: MIC (µg/mL) (phenotypea) / R. The method, then:
as §1
This is another data set of the same source.

The target of a further experiment is T3, MAB_4111c (Tle) (Mycobacteroides abscessus, UniProt B1MIG3).
T3 construct: full-length, 353 residues, six-histidine tag from pET30 (kept), expressed in E. coli BL21 Star DE3; partially purified Ni-bead-enriched fraction
T3 sequence (B1MIG3 entry or part of it): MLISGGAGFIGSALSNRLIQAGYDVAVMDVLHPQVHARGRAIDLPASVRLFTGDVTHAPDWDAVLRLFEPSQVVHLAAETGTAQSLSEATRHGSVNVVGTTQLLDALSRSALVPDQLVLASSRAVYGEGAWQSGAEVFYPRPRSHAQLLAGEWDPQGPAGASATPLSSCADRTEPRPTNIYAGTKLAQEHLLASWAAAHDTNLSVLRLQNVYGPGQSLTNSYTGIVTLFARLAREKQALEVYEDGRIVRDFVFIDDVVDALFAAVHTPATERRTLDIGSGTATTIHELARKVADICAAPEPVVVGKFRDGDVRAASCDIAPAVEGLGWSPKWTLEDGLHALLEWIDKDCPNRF
Description: reverse reaction, formation of dTDP-Rha (data not shown). It counts as biochemical. As to conditions: 60 min, also the product of the forward reaction, partially purified Ni-bead fraction.

Like-named read-outs stand apart in the source and are kept apart here.

In the case of `NCC[C@H](O)C(=O)N[C@@H]1C[C@H](N)[C@@H](O[C@H]2O[C@H](CN)[C@@H](O)[C@H](O)[C@H]2O)[C@H](O)[C@H]1O[C@H]1O[C@H](CO)[C@@H](O)[C@H](N)[C@H]1O` [Amikacin], the MIC in experiment [1] was determined as 16 µg/mL; in experiment [2], 32 µg/mL.

Regarding `CO/N=C(\C(=O)N[C@@H]1C(=O)N2C(C(=O)[O-])=C(C[N+]3(C)CCCC3)CS[C@H]12)c1csc(N)n1` [Cefepime], the MIC in experiment [1] and in experiment [2] was more than 32 µg/mL throughout.

`CO[C@@]1(NC(=O)Cc2cccs2)C(=O)N2C(C(=O)O)=C(COC(N)=O)CS[C@@H]21` [Cefoxitin]: the values for the MIC in experiment [1] and in experiment [2] were 64 µg/mL and 128 µg/mL, respectively.

With `CO/N=C(\C(=O)N[C@@H]1C(=O)N2C(C(=O)O)=C(CSc3nc(=O)c(O)nn3C)CS[C@H]12)c1csc(N)n1` [Ceftriaxone], the MIC in experiment [1] and in experiment [2] was more than 64 µg/mL throughout.

In the case of `CC[C@H]1OC(=O)[C@H](C)[C@@H](O[C@H]2C[C@@](C)(OC)[C@@H](O)[C@H](C)O2)[C@H](C)[C@@H](O[C@@H]2O[C@H](C)C[C@H](N(C)C)[C@H]2O)[C@](C)(OC)C[C@@H](C)C(=O)[C@H](C)[C@@H](O)[C@]1(C)O` [Clarithromycin], the MIC in experiment [1] is 8 µg/mL; in experiment [2], 4 µg/mL; in experiment [3] it was more than 16 µg/mL; in experiment [4], more than 16 µg/mL.

Consider `C[C@H]1c2cccc(O)c2C(=O)C2=C(O)[C@]3(O)C(=O)C(C(N)=O)=C(O)[C@@H](N(C)C)[C@@H]3[C@@H](O)[C@@H]21` [Doxycycline], for which the MIC in experiment [1] and in experiment [2] was more than 16 µg/mL throughout.

For `C[C@@H](O)[C@H]1C(=O)N2C(C(=O)O)=C(SCCNC=N)C[C@H]12` [Imipenem], the MIC in experiment [1] and in experiment [2] was 64 µg/mL each time.

Take `CC(=O)NC[C@H]1CN(c2ccc(N3CCOCC3)c(F)c2)C(=O)O1` [Linezolid]: the MIC in experiment [1] and in experiment [2] was 32 µg/mL each time.

Turning to `CN(C)c1ccc(O)c2c1C[C@H]1C[C@H]3[C@H](N(C)C)C(O)=C(C(N)=O)C(=O)[C@@]3(O)C(O)=C1C2=O` [Minocycline], the MIC in experiment [1] and in experiment [2] was more than 8 µg/mL each time.

Consider `COc1c(N2C[C@@H]3CCCN[C@@H]3C2)c(F)cc2c(=O)c(C(=O)O)cn(C3CC3)c12` [Moxifloxacin], for which the MIC in experiment [1] and in experiment [2] was more than 8 µg/mL in each case.

In the case of `CO[C@H]1/C=C/O[C@@]2(C)Oc3c(C)c(O)c4c(c3C2=O)C2=NC3(CCN(CC(C)C)CC3)NC2=C(NC(=O)/C(C)=C\C=C\[C@H](C)[C@H](O)[C@@H](C)[C@@H](O)[C@@H](C)[C@H](OC(C)=O)[C@@H]1C)C4=O` [Rifabutin], the results for the MIC in experiment [1] and in experiment [2] were 64 µg/mL and 16 µg/mL, respectively.

As for `CN(C)c1cc(NC(=O)CNC(C)(C)C)c(O)c2c1C[C@H]1C[C@H]3[C@H](N(C)C)C(O)=C(C(N)=O)C(=O)[C@@]3(O)C(O)=C1C2=O` [Tigecycline], the MIC in experiment [1] worked out at 0.5 µg/mL; in experiment [2] it was 1 µg/mL.

As for `NC[C@H]1O[C@H](O[C@H]2[C@H](O)[C@@H](O[C@H]3O[C@H](CO)[C@@H](O)[C@H](N)[C@H]3O)[C@H](N)C[C@@H]2N)[C@H](N)C[C@@H]1O` [Tobramycin], the MIC in experiment [1] and in experiment [2] was 16 µg/mL throughout.

With `Cc1cn([C@H]2C[C@H](O)[C@@H](COP(=O)(O)OP(=O)(O)O[C@H]3O[C@@H](C)[C@@H](O)[C@@H](O)[C@H]3O)O2)c(=O)[nH]c1=O` [dTDP-6-d-Tal], the “reverse reaction, formation of dTDP-Rha (data not shown)” value at MAB_4111c (Tle) is “reverse reaction using dTDP-6-d-Tal as a substrate and observed the formation of dTDP-Rha”.
